# Reference: patent publication US20240156901A1, “GAL3BP POLYPEPTIDE COMPOSITIONS AND METHODS FOR TREATMENT OF CANCER AND DETERMINING TREATMENT RESPONSIVENESS” (UNIVERSITY OF PITTSBURGH-OF THE COMMONWEALTH SYSTEM OF …, priority 2021, published 2024)
# B1: rGal3BP: recombinant Gal3BP protein; Galectin-3-binding protein, monomer PDB 6GFB used for docking (protein)
# chain: VNDGDMRLADGGATNQGRVEIFYRGQWGTVCDNLWDLTDASVVCRALGFENATQALGRAAFGQGSGPIMLDEVQCTGTEASLADCKSLGWLKSNCRHERDAGVVCTNETRSTHTLDLSRELSEALGQIFDSQRGCDLSISVNVQGEDALGFCGHTVILTANLEAQALWKEPGSNVTMSVDAECVPMVRDLLRYFYSRRIDITLSSVKCFHKLASAYGARQLQGYCASLFAILLPQDPSFQMPLDLYAYAVATGDALLEKLCLQFLAWNFEALTQAEAWPSVPTDLLQLLLPRSDLAVPSELALLKAVDTWSWGERASHEEVEGLVEKIRFPMMLPEELFELQFNLSLYWSHEALFQKKTLQALEFHTVPFQLLARYKGLNLTEDTYKPRIYTSPTWSAFVTDSSWSARKSQLVYQSRRGPLVKYSSDYFQAPSDYRYYPYQSFQTPQHPSFLFQDKRVSWSLVYLPTIQSCWNYGFSCSSDELPVLGLTKSGGSDRTIAYENKALMLCEGLFVADVTDFEGWKAAIPSALDTNSSKSTSSFPCPAGHFNGFRTVIRPFYLTNSSGVD
# Experiments:
# [1] = system: GL261-CHI3L1 orthotopic tumors; test: Peptide treatment of GL261-CHI3L1 orthotopic tumors (MRI, survival)
# Procedure: (§2) Male and female ICR SCID and C57BL/6 mice (4-6 weeks of age) were purchased from Taconic Biosciences and The Jackson Laboratory, respectively. The intracranial xenograft tumor models were established as previously described (Hu B et al., 2016). Cells in 5 μL DPBS were injected at the following numbers: TS543 vector control or CHI3L1 overexpression (OE), 1×10^4 cells; QPP7 scrambled control or CHI3L1 knockdown (KD), 1×10^5 cells; and GL261 vector control or CHI3L1 OE, 1×10^5 cells. […] For mice treated with peptides, 5 uL of 20 uM SCP or GMP was delivered into the mouse brain every 4 days with a total of seven times.
# (§3) MRI and bioluminescent imaging of mice were performed at Rangos Research Center Animal Imaging Core. The tumor size of mice detected by MRI was analyzed with ITK-SNAP.
# For intracranial xenograft tumor models treated with peptides, mice were implanted with a guide screw prior to intracranial injection. To install the screw, mice were anesthetized by intraperitoneal (IP) injection with ketamine/xylazine solution (1.75 mL of 100 mg/mL ketamine and 0.25 mL of 100 mg/mL xylazine in 8 mL sterile water) at a dosage of 100 μL/20 g body weight. The screw was covered by sealing the skin, and mice were allowed to recover for one week before intracranial implantation. GL261 cells overexpressing CHI3L1 (1×10^5) were injected in 5 μL of DPBS containing 20 μM of either scrambled control peptide (SCP) or Gal3BP mimetic peptide (GMP). SCP (20 μM) or GMP (20 μM) was subsequently given once every 3 days with a total of seven times by intracranial injection via the guide screw.
# (§4) All mice received general inhalation anesthesia with Isoflurane for in vivo brain imaging. […] Depth of anesthesia was monitored by toe reflex (extension of limbs, spine positioning) and respiration rate. […] Respiration was monitored using a pneumatic sensor placed between the animal bed and the mouse's abdomen, rectal temperature was measured with a fiberoptic sensor, and core temperature was maintained at 36.8±0.2° C. with a feedback-controlled warm air source (SA Instruments). […]
# [2] = target: T1, binding of CHI3L1 and Gal3 (Homo sapiens, UniProt P36222); test: Co-IP with Gal3 antibody in THP-1 cells treated with peptides; conditions: 20 μM for 24 hours
# T1 construct: endogenous in cells; host or cells: THP-1 cells
# Procedure: TS603 cells overexpressing CHI3L1 with V5 tag (TS603 CHI3L1_V5_OE) or THP-1 cells treated with the peptides were collected and protein-protein interaction was crosslinked with 2 mM Dithiobis (succinimidyl propionate, DSP). Membrane proteins were extracted with the Membrane Protein Extraction Kit (ThermoFisher, Cat #89842) and ˜500 μg of protein was used for Co-IP assay by the Co-Immunoprecipitation Kit (ThermoFisher, Cat #26149).
# (§5) For in vivo THP-1 cell or in vitro recombinant protein Co-IP experiments, additional following antibodies were used: Mouse anti-CHI3L1 (Santa Cruz Biotechnology, Cat #SC-393590), Rat anti-Galectin-3 (Santa Cruz Biotechnology, Cat #SC-23938), anti-Galectin-3BP (Santa Cruz Biotechnology, Cat #SC-374541), Rabbit anti-CHI3L1 (Cell Signaling Technology, Cat #47066), and Rat IgG (BioXCell, Cat #BE0090).
# [3] = system: Gal3/CHI3L1; test: Inhibition of Gal3/CHI3L1 by Gal3BP polypeptides; conditions: SEQ ID NO: 4 as compared to SEQ ID NO: 5
# [4] = system: GL261-CHI3L1 glioma; test: Flow cytometry of immune cell populations in GL261-CHI3L1 glioma after peptide treatment; format: in vivo, mouse
# Procedure: Mice with neurological deficits or moribund appearance were sacrificed. Tumors were separated and homogenized for 15 min at 37° C. in Collagenase IV Cocktail (3.2 mg/mL collagenase type IV, 2 mg/mL soybean trypsin inhibitor, and 1.0 mg/mL deoxyribonuclease I; Worthington Biochemical). Red blood cells were lysed using ACK lysing buffer (Gibco). Cell suspensions were filtered through 70-μm strainers, centrifuged, and resuspended in cold FACS buffer (DPBS with 1% BSA) for further analysis.
# About 3×10^6 cells were used for each staining panel. Cells were incubated with 1.0 μg of TruStain fcX (BioLegend) for 10 min on ice to block Fc receptors, followed by staining with the combination of indicated antibodies. After staining, cells were washed with FACS buffer three times and incubated with Fixation Buffer (BioLegend) at RT for 20 min. Cells were washed with FACS buffer, resuspended in Cyto-Last Buffer (BioLegend), and analyzed by either a BD LSRFortessa or BD FACSAria II SORP. For CyTOF, samples were prepared as described above for flow cytometry. Three pairs of samples (scrambled shRNA vs Chi3l1 KD) with similar tumor sizes were chosen and the staining procedure was followed as previously described (Mitsialis V, et al., 2020). The samples were analyzed on a Helios2 CyTOF system (Fluidigm) at the Longwood Medical Area CyTOF Core. Additional information about flow cytometry antibodies is provided in the Supplementary Material and Methods section.
# [5] = system: bone-marrow derived macrophages (BMDMs); test: Scratch-wound healing assay, BMDM migration; format: cell-based, mouse
# Procedure: (§1) BMDMs were isolated from male and female C57BL/6 mice as previously described (Ying W et al., 2013). Briefly, femur bones were isolated from mice, and IMDM (ATCC) supplemented with 10% FBS and P/S was used to flush the bone marrow into a petri dish. After 4-6-hour incubation, the floating cells were collected and resuspended in the medium with 20 ng/mL M-CSF (PrproTech). On day 6, the fully differentiated cells were designated as an M0 state. To induce BMDM polarization toward an M1 state, 100 ng/mL LPS (Invitrogen) and 50 ng/mL IFNγ (PrproTech) were added to the M0 cells for 24 hours. To induce BMDM polarization toward an M2 state, 20 ng/mL IL-4 (PrproTech) was added to the M0 cells for 72 hours.
# BMDM were polarized to the indicated status (M0, M1, or M2) and seeded in 12-well plates at 80-90% confluency. The cells were switched to the medium without FBS for 6 hours of starvation. Scratches were made using pipettor tips and fresh IMDM with indicated recombinant proteins and/or peptides were added. Images of the scratches were captured at indicated times. For the SIM-A9 scratch-wound healing assay, 12-well plates were coated with 10 μg/mL fibronectin (Sigma-Aldrich) at 37° C. overnight before seeding cells.
# [6] = system: QPP7 glioma; test: Peptide treatment of orthotopic syngeneic QPP7 glioma (MRI, survival); conditions: orthotopic syngeneic mice bearing QPP7 glioma; local delivery into the brain; vs SCP
# Procedure: as §2, §3
# For intracranial xenograft tumor models treated with peptides, mice were implanted with a guide screw prior to intracranial injection. […]
# as §4
# [7] = system: PI3K/AKT/mTOR pathway; test: Immunoblot of PI3K/AKT/mTOR signaling and transcription factors in M0 BMDMs; format: cell-based, mouse; conditions: 30 minutes
# Procedure: Cells were lysed on ice using RIPA buffer (Millipore) supplemented with protease and phosphatase inhibitors (Roche). The protein concentration was determined by the BCA method and 15˜30 ug of total proteins were loaded and analyzed by Western blotting with indicated antibodies. For IHC staining, brain tissues were fixed in 10% formalin overnight and embedded in paraffin. For IF staining, fresh brain tissues were immediately frozen in OCT on dry ice. IHC and IF staining were performed as we described previously (Hu B et al., 2016). Additional information about antibodies is provided in the Supplementary Material and Methods section
# Immunoblotting (IB), Immunohistochemistry (IHC), and Immunofluorescence (IF). […]
# [8] = system: bone-marrow derived macrophages (BMDMs); test: Transwell migration assay, BMDM migration; format: cell-based, mouse; conditions: rCHI3L1 2.5 μg/mL, rGal3BP 5.0 μg/mL
# Procedure: as §1
# Polarized BMDMs were starved by removing FBS for 6 hours. Cells were collected and 2×10^5 cells in 200 μL of IMDM were added into each transwell insert (Millipore, Cat #MCMP24H48). 700 μL of IMDM containing 2% FBS and the indicated recombinant proteins was added to the bottom of the plates. After 14-hour incubation, transwell inserts were stained with HEMA 3 Stain Set (Fisher Scientific). Insert membranes were separated and mounted on glass slides with CYTOSEAL XYL (ThermoFisher) and images were taken by an inverted microscope (Leica DM 2500). For the SIM-A9 cells, the inserts were coated with 10 μg/mL fibronectin overnight in advance of seeding cells.
# [9] = system: Arg1, Ym1, Ccl2, Il10 gene expression; test: qRT-PCR of immune suppression genes in M0 BMDMs; format: cell-based, mouse; conditions: rCHI3L1 2.5 μg/mL, rGal3 2.5 μg/mL, rGal3BP 5.0 μg/mL, 24 hours
# Procedure: as §1
# RNA was extracted and cDNA was synthesized as described previously (Hu B et al., 2016). qRT-PCR was performed using PowerSYBR Green PCR Master Mix (Applied Biosystems) and detected with a StepOnePlus Real-Time PCR System (Applied Biosystems). Each reaction was performed in duplicate or triplicate. The relative expression of genes was normalized to human RPL39 or mouse 18S ribosomal RNA. For RNA-seq experiments, cells from intracranial xenograft tumors were isolated and incubated with antibodies for immune cell types. Macrophages were isolated by FACS and RNA was then isolated and sent to Health Sciences Sequencing Core at UPMC Children's Hospital of Pittsburgh for RNA-seq. […]
# [10] = target: T2, Gal3 and CHI3L1 protein binding (Homo sapiens, UniProt P36222); test: In vitro recombinant protein Co-IP competition (rGal3 + rCHI3L1 + increasing rGal3BP); conditions: 200 ng rGal3+200 ng rCHI3L1; rGal3BP 0-800 ng/sample; with or without TD139
# T2 construct: purchased R&D Systems 2599-CH-050 (CHI3L1); 8259-GA-050 (Galectin-3)
# Description: as §5
# [11] = GL261-CHI3L1 tumors, GMP in contrast to SCP
# [12] = GMP-treated vs SCP-treated tumors, GL261-CHI3L1 model
# T1 sequence (P36222 22-383): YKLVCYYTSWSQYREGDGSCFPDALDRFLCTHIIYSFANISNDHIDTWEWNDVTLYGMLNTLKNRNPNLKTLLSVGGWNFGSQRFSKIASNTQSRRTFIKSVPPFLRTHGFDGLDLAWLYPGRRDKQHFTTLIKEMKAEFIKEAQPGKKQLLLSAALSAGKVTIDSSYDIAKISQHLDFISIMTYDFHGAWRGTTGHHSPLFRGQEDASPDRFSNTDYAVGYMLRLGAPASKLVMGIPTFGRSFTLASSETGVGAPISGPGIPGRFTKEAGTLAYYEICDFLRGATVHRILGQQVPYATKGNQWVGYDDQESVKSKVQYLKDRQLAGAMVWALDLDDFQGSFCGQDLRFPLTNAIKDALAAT
# T2 sequence (P36222 22-383): as above
molecule,measurement,setting,value
TLDLSRELSEALGQI [GMP],tumor growth (T2 MRI),"[1]; C57BL/6 mice bearing GL261-CHI3L1, GMP compared to SCP",reduced tumor growth
same,median survival,"[1]; C57BL/6 mice bearing GL261-CHI3L1 orthotopic tumors, 20 μM peptide into brain tumor via guide screw",36 days
same,binding of CHI3L1 and Gal3 (Co-IP),[2],decreasing binding of CHI3L1 and Gal3
same,inhibition of Gal3/CHI3L1,[3],increased inhibition
same,CD8+ cells,[4]; [11],significantly increased
same,T cells (CD3+),[4]; [11],significantly increased
same,"PD-L1 expression in CD45+, CD8+ and CD4+ cells",[4]; GMP treatment,only a decreasing trend
same,PD-L1 expression in glioma cells,[4]; GMP treatment,significantly decreased
same,CTLA-4 level in CD4+ T cells,[4]; GMP vs SCP,a trend of elevated levels
same,PD-1 level in CD4+ T cells,[4]; GMP vs SCP,a trend of elevated levels
same,CTLA-4 expression in CD8+ T cells,[4]; [12],significantly upregulated
same,PD-1 expression in CD8+ T cells,[4]; [12],significantly upregulated
same,"PD-L1 expression in CD45+, CD8+ immune cells, and glioma cells","[4]; preclinical mouse models, as restated in Example 8",significantly decrease
same,CD4+ cell population,[4]; tumors of C57BL/6 mice bearing GL261-CHI3L1,41.9±4.5%
same,M2-like TAMs,"[4]; tumors of C57BL/6 mice bearing GL261-CHI3L1, mean±SEM, P=0.0536",42.8±3.8%
same,M1-like TAMs,"[4]; tumors of C57BL/6 mice bearing GL261-CHI3L1, mean±SEM, P=0.0719",49.5±4.0%
same,"rCHI3L1-induced BMDM migration, dose dependence","[5]; M2 BMDMs, rCHI3L1 0.6 μg/mL, different concentrations of peptide, 6 hours",inhibits rCHI3L1-induced BMDM migration in a dose-dependent manner
same,rCHI3L1-promoted M2 BMDM migration,"[5]; rCHI3L1 0.6 μg/mL, peptide 30 μM, compared with SCP",significantly inhibited
same,rCHI3L1+rGal3-induced M0 BMDM migration,"[5]; rCHI3L1 2.5 μg/mL, rGal3 2.5 μg/mL, peptide 30 μM, in contrast to SCP",attenuated
same,mouse survival,[6],increased mouse survival
same,tumor size,[6],decreased tumor size
B1,"levels of p-AKT (T473 and S308), p-S6, and p-mTOR",[7],inhibited
same,rCHI3L1-induced M2 BMDM migration,[8],significantly attenuated
same,"expression of genes related to anti-inflammation (Arg1, Ym1, Ccl2, Il10)",[9],significantly inhibited
same,rCHI3L1-induced M2 BMDM migration,"[5]; rCHI3L1 2.5 μg/mL, rGal3BP 5.0 μg/mL, scratch-wound healing",significantly attenuated
same,competition with Gal3 for binding CHI3L1 (Co-IP),[10],compete for the same binding site in CHI3L1
